Tested on: HaCaTa cells

Compound | protection from drug-induced toxicity (Absorbance units) (0.625 mM NAC plus cooling at 22° C., extremely high doses of 4-OH-CP (FIG. 5)) | cytoprotection from combinatorial drug treatment (AC), versus cooling alone (0.625 mM NAC plus cooling at 26° C. or 22° C., sequential doxorubicin 3 μg/ml (1 h) and 4-OH-CP 5 μg/ml (1 h) (FIG. 7)) | cytoprotection of cooling at 26° C. with inhibition of ROS, compared with 22° C. at same CP concentration (0.625 mM NAC plus cooling at 26° C., 4-OH-CP (FIG. 4 vs FIG. 3)) | protection from drug-induced toxicity (% relative to control) (0.625 mM NAC plus cooling at 26° C., extremely high doses of doxorubicin (FIG. 6)) | cytotoxicity of the drug in keratinocytes
CC(=O)N[C@@H](CS)C(=O)O [NAC, N-acetyl-cysteine] | strikingly high levels of protection | better cytoprotection | highly cytoprotective | strikingly high levels of protection | 
COc1cccc2c1C(=O)c1c(O)c3c(c(O)c1C2=O)C[C@@](O)(C(=O)CO)C[C@@H]3O[C@H]1C[C@H](N)[C@H](O)[C@H](C)O1 [doxorubicin] |  |  |  |  | nearly total cytotoxicity (death)

— patent publication US11077088B2, “Composition and apparatus for treatment of chemotherapy induced alopecia” (Paxman Coolers Ltd, priority 2016, dated 2021)
